{"source": "paper PMC11416940", "about": "“Identification and characterization of a small molecule BFstatin inhibiting BrpR, the transcriptional regulator for biofilm formation of Vibrio vulnificus” (Frontiers in Microbiology, 2024)", "target": "T1, BrpR", "T1 construct": "His6-tagged BrpR (brpR gene on pET-28a(+), expressed in E. coli BL21 (DE3))", "assay": "microscale thermophoresis (MST) with labeled purified His6-BrpR; supported by EMSA inhibition of promoter DNA binding", "parameters": "species or system Vibrio vulnificus"}
{"molecule": "CCCNC(=O)CC(=O)Nc1cc(F)ccc1Cl", "note": "[175C05, N1-(2-chloro-5-fluorophenyl)-N3-propylmalonamide]", "values": [{"measurement": "Kd", "value": 7.14, "unit": "µM"}]}
